Laboratory results reported in patent publication US3972872A, “6-[α-(ω-Guanidinoalkanoylamido)acylamido]penicillanic acids” (Pfizer Inc., priority 1975, dated 1976).
≈ marks a conversion by molar mass, not a printed value. Where a name gives a salt, the structure may show the parent alone. Read-outs that look alike come from different tables or passages of the source.

How the values were obtained:
Pseudo. aeruginosa 173 = assay: In vitro MIC, Pseudo. aeruginosa 173; assay type: cell-based, Pseudomonas aeruginosa; conditions: unit assumed
Description: (§1) The in vitro spectra of a number of 6-[α-(ω-guanidinoalkanoylamido)acylamido]penicillanic acids of this invention against certain gram-negative bacteria are presented in Table I below. […] Th compounds of Table I have the formula

Pseudo. aeruginosa 490 = assay: In vitro MIC, Pseudo. aeruginosa 490; assay type: cell-based, Pseudomonas aeruginosa; conditions: unit assumed
Description: as §1

Escherichia coli 266 = assay: In vivo protection of mice versus Escherichia coli 266; conditions: Escherichia coli, 266, sc, 96 h, read-out: % Protection
Description: (§2) Additionally, the compounds of this invention are active versus gram-positive and gram-negative bacteria in vivo via the parenteral route of administration in animals, including man. Their in vivo activity in animals, including man, by the oral route of administration is more limited as regards susceptible organisms. Nevertheless, oral in vivo activity against Escherichia coli and Staphylococcus aureus is a common property of many compounds of this invention. Table II below presents the comparative in vivo spectra of several compounds within the scope of this invention against D-α-aminobenzylpenicillin (Ampicillin).
(§3) The acute systemic infections in mice were produced by the intraperitoneal inoculation of standardized cultures suspended in 5% hog gastric mucin. Treatment with the drugs was initiated 0.5 hours after inoculation of the infecting organism. A second dose was administered 4 hours later. The PD50 values were calculated after a hold period of 4 days.

Proteus mirabilis C020 = assay: In vitro MIC, Proteus mirabilis C020; assay type: cell-based; conditions: unit assumed
Description: (§4) The in vitro activity of the herein-described compounds renders them useful for topical application in the form of ointments, creams and the like, or for sterilization purposes, e.g., sick room utensils.
as §1

Serratia marcescens A001 = assay: In vitro MIC, Serratia marcescens A001; assay type: cell-based; conditions: unit assumed
Description: as §1

E. coli 266 = assay: In vitro MIC, E. coli 266, two-fold serial dilution; assay type: cell-based, Escherichia coli; conditions: unit assumed
Description: as §1

Proteus vulgaris A059 = assay: In vitro MIC, Proteus vulgaris A059; assay type: cell-based; conditions: unit assumed
Description: as §1

Proteus rettgeri B006 = assay: In vitro MIC, Proteus rettgeri B006; assay type: cell-based; conditions: unit assumed
Description: as §4, §1

Pseudo. aeruginosa 104 = assay: In vitro MIC, Pseudo. aeruginosa 104; assay type: cell-based, Pseudomonas aeruginosa; conditions: unit assumed
Description: as §1

Proteus mirabilis C015 = assay: In vitro MIC, Proteus mirabilis C015; assay type: cell-based; conditions: unit assumed
Description: as §1

P. aeruginosa = assay: PD50 versus acute systemic P. aeruginosa infection in mice; assay type: in vivo; conditions: mice; for ED50: Pseudomonas aeruginosa, 96 h, P. aeruginosa, read-out: PD50
Description: as §2, §3

E. coli = assay: PD50 versus acute systemic E. coli infection in mice; assay type: in vivo; conditions: Escherichia coli, 96 h, E. coli, mice
Description: as §2, §3

S. aureus = assay: PD50 versus acute systemic S. aureus infection in mice; assay type: in vivo; conditions: Staphylococcus aureus, 96 h, S. aureus, mice
Description: as §2, §3

[1] = 50 mg./kg., mice, subcutaneous route

CN(CC(=O)N[C@@H](C(=O)N[C@@H]1C(=O)N2[C@@H]1SC(C)(C)[C@@H]2C(=O)O)c1ccccc1)C(=N)N [CH2 N(CH3)--C(NH)NH2, R=H, 6-{D-2-Phenyl-2-[(1-Methylguanidino)Acetamido]Acetamido}-Penicillanic Acid]
MIC (Pseudo. aeruginosa 173): 12.5 µg/mL (≈ 27 µM) | MIC (Pseudo. aeruginosa 490): 3.12 µg/mL (≈ 6.75 µM) | responders at 50 mg/kg (Escherichia coli 266): 60% | MIC (Proteus mirabilis C020): 6.25 µg/mL (≈ 13.5 µM) | MIC (Serratia marcescens A001): 3.12 µg/mL (≈ 6.75 µM) | MIC (E. coli 266): 6.25 µg/mL (≈ 13.5 µM) | MIC (Proteus vulgaris A059): 6.25 µg/mL (≈ 13.5 µM) | MIC (Proteus rettgeri B006): 100 µg/mL (≈ 216 µM) | MIC (Pseudo. aeruginosa 104): 50 µg/mL (≈ 108 µM) | MIC (Proteus mirabilis C015): 6.25 µg/mL (≈ 13.5 µM)

CC1(C)S[C@@H]2[C@H](NC(=O)[C@H](N)c3ccccc3)C(=O)N2[C@H]1C(=O)O [D-α-aminobenzylpenicillin, reference compound]
MIC (Pseudo. aeruginosa 173): 200 µg/mL (≈ 572 µM) | MIC (Pseudo. aeruginosa 490): 0.78 µg/mL (≈ 2.23 µM) | responders at 50 mg/kg (Escherichia coli 266; [1]): 100% | ED50 (P. aeruginosa; oral): > 200 mg/kg | ED50 (P. aeruginosa; sc, subcutaneous): > 200 mg/kg | activity against Pseudomonas aeruginosa (in words) (P. aeruginosa; in vivo): inactive | MIC (Serratia marcescens A001): 200 µg/mL (≈ 572 µM) | ED50 (E. coli; oral): 25 ± 13 mg/kg | ED50 (E. coli; sc, subcutaneous): 27 ± 9 mg/kg | MIC (E. coli 266): 3.1 µg/mL (≈ 8.87 µM) | MIC (Proteus vulgaris A059): 6 µg/mL (≈ 17.2 µM) | ED50 (S. aureus; oral): 2.5 ± 0.7 mg/kg | ED50 (S. aureus; sc, subcutaneous): 0.67 ± 0.4 mg/kg | MIC (Pseudo. aeruginosa 104): 200 µg/mL (≈ 572 µM) | MIC (Proteus mirabilis C015): 1.5 µg/mL (≈ 4.29 µM)

CN(CC(=O)N[C@@H](C(=O)N[C@@H]1C(=O)N2[C@@H]1SC(C)(C)[C@@H]2C(=O)OCOC(=O)C(C)(C)C)c1ccccc1)C(=N)N [CH2 N(CH3)--C(NH)NH2, R=POM, 6-{D-2-Phenyl-2-[(1-Methylguanidino)Acetamido]Acetamido}-Penicillanic Acid, Pivaloyloxymethyl Ester, Hydrochloride]
MIC (Pseudo. aeruginosa 490): 3.12 µg/mL | responders at 50 mg/kg (Escherichia coli 266): 70% | MIC (E. coli 266): 12.5 µg/mL | MIC (Proteus mirabilis C015): 12.5 µg/mL

CC(C)(C)C(=O)OCOC(=O)[C@@H]1N2C(=O)[C@@H](NC(=O)[C@H](NC(=O)CNC(=N)N)c3ccccc3)[C@H]2SC1(C)C [CH2 NH--C(NH)NH2, R=POM, 6-[D-2-Phenyl-2-(Guanidinoacetamido)Acetamido]Penicillanic Acid, Pivaloyloxymethyl Ester, Hydrochloride]
MIC (Pseudo. aeruginosa 490): 0.78 µg/mL | responders at 50 mg/kg (Escherichia coli 266; [1]): 90% | MIC (E. coli 266): 25 µg/mL | MIC (Proteus mirabilis C015): 50 µg/mL

CC1(C)S[C@@H]2[C@H](NC(=O)[C@H](NC(=O)C3CCCN(C(=N)N)C3)c3ccccc3)C(=O)N2[C@H]1C(=O)O (stereo partly drawn) [C(NH)NH2, R=H]
MIC (Pseudo. aeruginosa 173): 6.25 µg/mL (≈ 12.4 µM) | MIC (Pseudo. aeruginosa 490): 1.56 µg/mL (≈ 3.1 µM) | responders at 50 mg/kg (Escherichia coli 266; [1]): 80% | MIC (Serratia marcescens A001): 6.25 µg/mL (≈ 12.4 µM) | MIC (E. coli 266): 6.25 µg/mL (≈ 12.4 µM) | MIC (Proteus vulgaris A059): 6.25 µg/mL (≈ 12.4 µM) | MIC (Pseudo. aeruginosa 104): 12.5 µg/mL (≈ 24.9 µM) | MIC (Proteus mirabilis C015): 3.12 µg/mL (≈ 6.21 µM)

CC(C)(C)C(=O)OCOC(=O)[C@@H]1N2C(=O)[C@@H](NC(=O)[C@H](NC(=O)CCNC(=N)N)c3ccccc3)[C@H]2SC1(C)C [CH2 CH2 NH--C(NH)NH2, R=POM, Hydrochloride]
MIC (Pseudo. aeruginosa 490): 6.25 µg/mL | responders at 50 mg/kg (Escherichia coli 266; [1]): 100% | MIC (E. coli 266): 6.25 µg/mL | MIC (Proteus mirabilis C015): 0.39 µg/mL

CNC(=N)NCC(=O)N[C@@H](C(=O)N[C@@H]1C(=O)N2[C@@H]1SC(C)(C)[C@@H]2C(=O)O)c1ccccc1 [CH2 --NH--C(NH)NHCH3, R=H]
MIC (Pseudo. aeruginosa 173): 3.12 µg/mL (≈ 6.75 µM) | MIC (Pseudo. aeruginosa 490): 0.78 µg/mL (≈ 1.69 µM) | responders at 50 mg/kg (Escherichia coli 266): 100% | MIC (Serratia marcescens A001): 3.12 µg/mL (≈ 6.75 µM) | MIC (E. coli 266): 1.56 µg/mL (≈ 3.37 µM) | MIC (Proteus vulgaris A059): 3.12 µg/mL (≈ 6.75 µM) | MIC (Pseudo. aeruginosa 104): 1.56 µg/mL (≈ 3.37 µM) | MIC (Proteus mirabilis C015): 1.56 µg/mL (≈ 3.37 µM)

CC1(C)S[C@@H]2[C@H](NC(=O)[C@H](NC(=O)Cc3ccc(NC(=N)N)cc3)c3ccccc3)C(=O)N2[C@H]1C(=O)O [NH--C(NH)NH2 [4th of 4], R=H]
MIC (Pseudo. aeruginosa 173): 3.12 µg/mL (≈ 5.95 µM) | MIC (Pseudo. aeruginosa 490): 1.56 µg/mL (≈ 2.97 µM) | responders at 50 mg/kg (Escherichia coli 266; [1]): 20% | MIC (Serratia marcescens A001): 25 µg/mL (≈ 47.7 µM) | MIC (E. coli 266): 6.25 µg/mL (≈ 11.9 µM) | MIC (Proteus vulgaris A059): 12.5 µg/mL (≈ 23.8 µM) | MIC (Pseudo. aeruginosa 104): 6.25 µg/mL (≈ 11.9 µM) | MIC (Proteus mirabilis C015): 12.5 µg/mL (≈ 23.8 µM)

CC1(C)S[C@@H]2[C@H](NC(=O)[C@H](NC(=O)CN3CCNC3=N)c3ccccc3)C(=O)N2[C@H]1C(=O)O [CH2 --N--C(NH)--NHCH2 CH2, R=H]
MIC (Pseudo. aeruginosa 173): 12.5 µg/mL (≈ 26.3 µM) | MIC (Pseudo. aeruginosa 490): 3.12 µg/mL (≈ 6.57 µM) | responders at 50 mg/kg (Escherichia coli 266): 100% | MIC (Serratia marcescens A001): 12.5 µg/mL (≈ 26.3 µM) | MIC (E. coli 266): 6.25 µg/mL (≈ 13.2 µM) | MIC (Proteus vulgaris A059): 6.25 µg/mL (≈ 13.2 µM) | MIC (Pseudo. aeruginosa 104): 12.5 µg/mL (≈ 26.3 µM) | MIC (Proteus mirabilis C015): 3.12 µg/mL (≈ 6.57 µM)
